Reference: publication PMC10359459 (Nucleic Acids Research, 2023)

Target: T1, BldD (Saccharopolyspora erythraea, UniProt A4FBF9)
T1 sequence (A4FBF9 1-162): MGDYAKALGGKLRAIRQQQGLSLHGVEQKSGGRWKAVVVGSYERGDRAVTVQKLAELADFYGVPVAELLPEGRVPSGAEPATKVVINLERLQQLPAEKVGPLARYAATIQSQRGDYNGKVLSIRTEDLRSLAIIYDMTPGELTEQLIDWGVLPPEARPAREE
Test: isothermal titration calorimetry
Type: binding

- Kd: 570 nM
Compound: Nc1nc2c(ncn2[C@@H]2O[C@@H]3CO[P@](=O)(O)O[C@H]4[C@@H](O)[C@H](n5cnc6c(=O)[nH]c(N)nc65)O[C@@H]4CO[P@](=O)(O)O[C@H]3[C@H]2O)c(=O)[nH]1 [c-di-GMP]
